How the values were obtained:
[1] = system: superoxide dismutase extracted from chloroplasts of Conyza bonariensis biotype requiring high levels of oxidant herbicide; experiment: Inhibition of superoxide dismutase activity on gel; type: biochemical; conditions: gel soaked with 0.2% diethyldithiocarbamate
Experimental: (§1) Based on preliminary evidence that there was no difference in superoxides dismutase activity in whole leaves of these two biotypes and our own findings we assayed the levels of the dismutating enzymes in chloroplast extracts. The oxidant producing herbicides are effective in field conditions only in the light. […] This justifies assay of these enzymes in chloroplasts. Intact chloroplasts were isolated according to the method of Slovacek and Hind (Plant Physio. 60, 538 (1977)) except that 50 mM 2-(N-morpholino)ethanesulfonic acid buffer was used instead of the pyrophosphate buffer originally used in the chloroplast isolation medium. […] Chlorophyll content was measured in 80% acetone according to Arnon (Plant Physiol. 24 1 […]). Intactness of chloroplast was measured by means of ribulose-bis-phosphate-carboxylase activity in the chloroplast fraction supernatant according to Bjorkman (Physiol. Plant 21 1, (1968)), and proteins by the method of Bradford (Analyt. Biochem. 72 248 (1976)). […] We developed a technique to quantify superoxide dismutase by generating a standard curve by running different levels of known superoxide dismutase (ex bovine blood, Sigma) on the same gel. […] The gels were scanned in a Beckman DU-8 spectrophotometer, the peak areas were measured and related to the superoxide dismutase standard curve which was linear up to 0.2 enzyme units. […]

[2] = system: superoxide dismutase extracted from chloroplasts of Conyza bonariensis biotype requiring low levels of oxidant herbicide; experiment: Inhibition of superoxide dismutase activity on gel; type: biochemical; conditions: gel soaked with 0.2% diethyldithiocarbamate
Experimental: as §1

Stellaria media = experiment: Whole plant spray, visual rating; type: in vivo; conditions: paraquat 30 μM spray to run-off, DDC 0.75% W/V where added, scored 1 day after treatment
Description: (§2) Seeds of Conyza bonariensis were germinated and plants cultivated as outlined in Example 1. Other species were germinated in a similar mixture and treated at 10 days.
(§3) ^a visual ratings (scored 1 day after treatment): 0 no damage to
(§4) slight burn; 1 moderate burn (may regenerate); 2 severe burn (will die)

Beans = experiment: Whole plant spray, visual rating; type: in vivo; conditions: paraquat 100 μM spray to run-off, DDC 0.75% W/V where added, scored 1 day after treatment
Description: as §2, §3, §4

Sinapsis arvense = experiment: Whole plant spray, visual rating; type: in vivo; conditions: paraquat 30 μM spray to run-off, DDC 0.75% W/V where added, scored 1 day after treatment
Description: as §2, §3, §4

Compound	% inhibition of activity [1] [%]	% inhibition of activity [2] [%]	visual rating (Stellaria media)	visual rating (Beans)	visual rating (Sinapsis arvense)
CCN(CC)C(=S)[S-].[Na+] [DDC, Sodium diethyldithiocarbamate]	100	100	–	–	–
C[n+]1ccc(-c2cc[n+](C)cc2)cc1 [paraquat, 1,1'-dimethyl-4-4'bipyridium ion]	–	–	0.5	1.5	0.5

— patent US5219825A, “Synergistic herbicidal compositions comprising herbicides which generate toxic oxygen radicals and chelating agents which inhibit their detoxification” (Yeda Research and Development Co., Ltd., priority 1986, dated 1993)
